Experimental data taken from patent US4169097A, “2,3-Dihydro-4H-1-benzopyran-4-one O-carbamoyl oximes” (priority 1978, dated 1979).

Tested on: gastric acid secretion
Assay: modified standard pylorus-ligated secretory testing procedure in the rat
Assay type: in vivo, Sprague-Dawley rats
Conditions: 50-100 mg/kg p.o., 1 hr. prior to ligation, 4 hrs. after ligation; for % Inhibition Gastric acid output: titration to pH 7, vs control 0.5% Methocel; for % Inhibition Volume of gastric secretion: vs control 0.5% Methocel
From the text: Such effect is evidenced using a modified standard pylorus-ligated secretory testing procedure in the rat. Sprague-Dawley rats, weighing 180-210 g and previously fasted for 24 hrs., were used. All compounds were given perorally as suspensions in 0.5% Methocel 1 hr. prior to pylorus ligation. Under light ether anesthesia, the rat stomach was ligated at the pylorus region. Four hrs. after ligation, the conscious rat was sacrificed by a chloroform overdose. The stomach was carefully excised and its content drained into a centrifuge tube. Samples were centrifuged to separate secretions from debris. Gastric fluid volume reading and determination of sample contamination, based on debris and sample color, was made. Titration was performed on a sample aliquot from 1 ml diluted to a volume of 5 ml using distilled water. The titrant used was 0.1 N NaOH. Total gastric acid output in the stomach was determined by titration to pH 7. A dose from 50-100 mg/kg p.o. of a compound was administered to a group of rats and its effect on the volume of gastric secretion and acid output compared to a control group receiving 0.5% Methocel p.o. The activity of each compound based on the degree of inhibition of gastric acid output is set forth in Table I.

CNC(=O)ON=C1CCOc2ccccc21 [I, 2,3-Dihydro-4H-1-benzopyran-4-one O-(Methylcarbamoyl) oxime]
% Inhibition Gastric acid output: 60.4% | % Inhibition Volume of gastric secretion: 34.1%

CCNC(=O)ON=C1CCOc2ccc(OC)cc21 [II, 2,3-Dihydro-6-methoxy-4-H-1-benzopyran-4-one O-(Ethylcarbamoyl)-oxime]
% Inhibition Gastric acid output: 57.7% | % Inhibition Volume of gastric secretion: 33.2%

CCNC(=O)ON=C1CCOc2ccccc21 [III, 2,3-Dihydro-4-H-1-Benzopyran-4-one O-(Ethylaminocarbonyl)oxime]
% Inhibition Gastric acid output: 79.7% | % Inhibition Volume of gastric secretion: 61.8%

CNC(=O)ON=C1CCOc2ccc(OC)cc21 [IV, 2,3-Dihydro-6-methoxy-4H-1-benzopyran-4-one O-(Methylaminocarbonyl)oxime]
% Inhibition Gastric acid output: 45.5% | % Inhibition Volume of gastric secretion: 35.3%

NC(=O)ON=C1CCOc2ccccc21 [IX, 2,3-Dihydro-4H-1-benzopyran-4-one O-(Aminocarbonyl)oxime]
% Inhibition Gastric acid output: 77.9% | % Inhibition Volume of gastric secretion: 60.5%

CNC(=O)ON=C1CCOc2ccc(Cl)cc21 [V, 6-Chloro-2,3-dihydro-4H-1-benzopyran-4-one O-(Methylaminocarbonyl)oxime]
% Inhibition Gastric acid output: 40.0% | % Inhibition Volume of gastric secretion: 55.2%

CNC(=O)ON=C1CCOc2ccc(N)cc21 [VI, 6-Amino-2,3-dihydro-4H-1-benzopyran-4-one O(Methylaminocarbonyl)oxime]
% Inhibition Gastric acid output: 55.8% | % Inhibition Volume of gastric secretion: 64.4%

C=CCNC(=O)ON=C1CCOc2ccccc21 [VII, 2,3-Dihydro-4H-1-benzopyran-4-one O-[(2-Propenyl)aminocarbonyl]oxime]
% Inhibition Gastric acid output: 89.9% | % Inhibition Volume of gastric secretion: 76.2%

CCCNC(=O)ON=C1CCOc2ccccc21 [VIII, 2,3-Dihydro-4H-1-benzopyran-4-one 0-(1-Propylaminocarbonyl)oxime]
% Inhibition Gastric acid output: 88.1% | % Inhibition Volume of gastric secretion: 73.1%
